This note sets out measurements from patent US10176292B2, “STING crystals and modulators” (MEMORIAL SLOAN-KETTERING CANCER CENTER, priority 2013, dated 2019).

The target in assay [1] is T1, hSTING^S162A/Q266I (Homo sapiens, UniProt Q86WV6, H232R/Q266I/S162A). Put plainly: IFN-β luciferase reporter, hSTING^S162A/Q266I. It counts as cell-based. Set-up: expressed in transfected cells. The conditions noted are these: dose-response. The protocol:
(§1) Luciferase assays for DMXAA experiments were performed as described above. Briefly, 3×10^4 293T cells were reverse-transfected with STING constructs (5 ng per 96-well) and reporter constructs (50 ng pIFNβ-Gluc, 10 ng pLenti-EF1-Fluc for normalization, 35 ng pMAX-empty as stuffer, delivered with TransIT-LT1, MirusBio, Madison Wis.). […] 12 hours after stimulation with STING-ligands, cells were resuspended in passive lysis buffer and luciferase activity was determined using the respective substrates Coelenterazine and D-Luciferin (PJK, Kleinblittersdorf, Germany). Gaussia Luciferase values were then normalized to constitutive Firefly Luciferase values (resulting in Relative Light Units, RLU).
(In general: A reporter such as luciferase makes a cellular process visible.)

In a further assay the test system is hSTING^group134. The assay can be described thus: IFN-β luciferase reporter, hSTING^group134. It counts as cell-based, human. The conditions noted are these: 0.18 mM DMXAA; compared with hSTING^group1234. The protocol:
as §1
Full-length hSTING (wt and substitutions) and mSTING (wt) constructs were used for this cellular assay, and were expressed at moderate levels allowing ligand-dependent activation of IFN-β promoter.

A further assay has as its target hSTING^H232/A162 (Homo sapiens, UniProt Q86WV6, S162A). The assay can be described thus: ITC binding, hSTING^H232 mutant S162A. The conditions noted are these: DMXAA; Protein: 0.08 mM; Ligands: 0.8 mM; 180 mM NaCl, pH 7.5; 25° C.
The subject of assay [2] is hSTING^group1 (aa 140-379). Put plainly: ITC binding, hSTING^group1. Conditions: isolated group1 substitutions.
The target of assay [3] is T2, hSTING^S162A/Q266I (aa 155-341) (Homo sapiens, UniProt Q86WV6, H232R/Q266I/S162A).
T2 construct: His6-SUMO (N, cleaved yes); made in house; host or cells: E. coli BL21 (DE3) RIL, modified pRSFDuet-1 vector
T2 sequence (Q86WV6 155-341 S162A/H232R/Q266I): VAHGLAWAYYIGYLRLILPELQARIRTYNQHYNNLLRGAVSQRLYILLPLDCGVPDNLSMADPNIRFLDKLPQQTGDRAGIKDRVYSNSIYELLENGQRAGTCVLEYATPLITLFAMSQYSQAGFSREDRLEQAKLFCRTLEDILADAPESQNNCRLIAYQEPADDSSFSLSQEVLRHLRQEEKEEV
Put plainly: X-ray crystal structure of DMXAA-hSTING^S162A/Q266I complex (Table 8 coordinates). Conditions: X-ray refinement (PHENIX) of DMXAA-hSTING^S162A/Q266I complex. The protocol: The crystals were generated by sitting drop vapor diffusion method at 20° C., by mixing equal volume reservoir solution with the sample. The detailed conditions are listed below: DMXAA-hSTING^group2: 2 M LiCl, 10% PEG6000, 0.01 M CaCl2, 0.1 M Tris, pH 7.8; DMXAA-hSTING^G230I: 0.2 M Li2SO4, 20% PEG 3350, 0.015 mM CYMAL®-7, 0.1 M Tris, pH 8.1; DMXAA-hSTING^S162A/Q266I: 0.2 M Ca(Ac)2, 15% PEG3000, 0.01 M L-Proline, 0.1 M NaAc, pH 5.1; DMXAA-hSTING^S162A/G230I/Q266I: 0.2 M Ca(Ac)2, 15% PEG3000, 0.1 M LiCl, 0.1 M NaAc, pH 5.1. All structures were solved using PHASER, COOT, PHENIX, and REFMAC programs.
(PDB: 4F5D) as the search model. […] For the cGAMP-STING binary structures, two STING molecules in the STING dimer have equal probability to bind with either G or A moiety of the cGAMP isomers. […] We therefore assigned two conformations with 0.5 occupancy for bound cGAMP isomers.
(PDB: 4LOH) as the search model.
The model building was conducted using the program COOT (Emsley et al., 2010) and structural refinement was conducted using the program REFMAC (Murshudov et al., 1997).

A further assay has as its target T3, hSTING I235L (Homo sapiens, UniProt Q86WV6, H232R/I235L).
T3 construct: Full-length hSTING (wt and substitutions) and mSTING (wt) constructs were used for this cellular assay; expressed in transfected cells; host or cells: 293T
Put plainly: IFN-β luciferase reporter, hSTING I235L. It counts as cell-based. Conditions: 0.18 mM DMXAA, 12 hours. As to the method:
as §1

The subject of the next assay is hSTING^group3. The assay can be described thus: ITC binding, hSTING^group3. The conditions noted are these: isolated group3 substitutions.
In assay [4] the target is T1, hSTING^S162A/Q266I. Put plainly: Real-time PCR in STING^Gt/Gt BMDCs transduced with hSTING^S162A/Q266I. It counts as cell-based. On the set-up: expressed in transfected cells; host or cells: bone marrow-derived dendritic cells of STING^Gt/Gt mice, retroviral transduction (pQCXIP-HA). The conditions noted are these: 50 μg/ml DMXAA, 3 hours. The protocol:
(§2) The protocol for generation of bone marrow-derived dendritic cells was described before (Dai et al., 2014). […] BMDCs (1×10^6 cells/well) were infected with retroviruses expressing hSTING (wt and various substitution mutants).
(§3) hSTING cDNAs were cloned into pQCXIP-HA vector. In vitro packaging system was used to generate retroviruses according to protocol (Clontech). BMDCs (1×10^6 cells/well) were seeded into 6-well plates and infected with retroviruses. […] CXCL10 protein level was determined by ELISA.

Assay [5] concerns the target T4, hSTING^S162A/G230I/Q266I (Homo sapiens, UniProt Q86WV6, G230I/H232R/Q266I/S162A). The assay can be described thus: Real-time PCR in STING^Gt/Gt BMDCs transduced with hSTING^S162A/G230I/Q266I. Conditions: 50 μg/ml DMXAA, 3 hours. The format is cell-based. As to the method: as §2, §3
(Real-time PCR tracks product formation cycle by cycle.)

For a further assay, the target named is T5, hSTING^Q266I (Homo sapiens, UniProt Q86WV6, H232R/Q266I).
T5 construct: Full-length hSTING (wt and substitutions) and mSTING (wt) constructs were used for this cellular assay; expressed in transfected cells; host or cells: 293T
T5 sequence (Q86WV6 whole entry H232R/Q266I): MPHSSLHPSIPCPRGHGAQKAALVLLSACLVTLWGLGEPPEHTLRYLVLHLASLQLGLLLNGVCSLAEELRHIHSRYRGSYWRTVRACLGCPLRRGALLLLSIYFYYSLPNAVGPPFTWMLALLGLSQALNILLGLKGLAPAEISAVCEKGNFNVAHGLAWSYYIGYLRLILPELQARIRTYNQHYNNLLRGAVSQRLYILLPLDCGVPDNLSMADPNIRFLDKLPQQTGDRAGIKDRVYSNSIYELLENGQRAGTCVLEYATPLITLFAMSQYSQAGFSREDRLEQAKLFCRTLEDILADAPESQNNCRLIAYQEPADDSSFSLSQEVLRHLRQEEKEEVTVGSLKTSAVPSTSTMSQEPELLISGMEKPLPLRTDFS
Put plainly: IFN-β luciferase reporter, hSTING Q266I. The format is cell-based. Conditions: 0.18 mM DMXAA, 12 hours. The protocol:
as §1

In assay [6] the target is T4, hSTING^S162A/G230I/Q266I. Put plainly: CXCL10 ELISA in STING^Gt/Gt BMDCs transduced with hSTING^S162A/G230I/Q266I. It counts as cell-based. The conditions noted are these: 50 μg/ml DMXAA, supernatants at 18 h; compared with the other hSTING substituents. As to the method: as §2, §3
CXCL10 was measured using the BD Opteia human IP-10 ELISA Set according to manufacturer's recommendations. Murine IFN-α was determined by ELISA using antibody RMMA-1 for capture and rabbit-anti-murine IFN-α polyclonal antibody for detection (PBL Interferon Source, Piscataway, N.J.). Dose-response curves were fitted and EC50 values were determined with Graphpad Prism (Graph Pad Software Inc., San Diego, Calif.).
For orientation: ELISA stands for enzyme-linked immunosorbent assay.

A further assay addresses T6, hSTING G166S (Homo sapiens, UniProt Q86WV6, G166S/H232R).
T6 construct: Full-length hSTING (wt and substitutions) and mSTING (wt) constructs were used for this cellular assay; expressed in transfected cells; host or cells: 293T
The assay can be described thus: IFN-β luciferase reporter, hSTING G166S. The format is cell-based. Conditions: 0.18 mM DMXAA, 12 hours. As to the method:
as §1

T4 sequence (Q86WV6 whole entry S162A/G230I/H232R/Q266I): as the sequence (Q86WV6 whole entry H232R/Q266I) above, with S162A, G230I counted along it
Chain of hSTING^H232/A162 (Q86WV6 140-379 S162A): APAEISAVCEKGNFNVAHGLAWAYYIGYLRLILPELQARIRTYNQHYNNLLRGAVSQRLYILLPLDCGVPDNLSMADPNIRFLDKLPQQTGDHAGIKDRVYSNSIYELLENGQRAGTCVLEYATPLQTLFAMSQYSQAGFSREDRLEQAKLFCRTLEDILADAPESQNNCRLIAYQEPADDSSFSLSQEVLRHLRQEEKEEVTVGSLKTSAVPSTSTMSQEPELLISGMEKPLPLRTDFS
T1 sequence (Q86WV6 whole entry S162A/H232R/Q266I): as the sequence (Q86WV6 whole entry H232R/Q266I) above, with S162A counted along it
T6 sequence (Q86WV6 whole entry G166S/H232R): as the sequence (Q86WV6 whole entry H232R/Q266I) above, with G166S, I266Q counted along it
T3 sequence (Q86WV6 whole entry H232R/I235L): as the sequence (Q86WV6 whole entry H232R/Q266I) above, with I235L, I266Q counted along it

In the case of `Cc1ccc2c(=O)c3cccc(CC(=O)O)c3oc2c1C` [DMXAA, 5,6-dimethylxanthenone-4-acetic acid], the “DMXAA-induced IFN-β induction” value on hSTING^S162A/Q266I [1] was “enhanced DMXAA-induced IFN-β induction similar to mSTING”. In addition, the “IFN-β luciferase reporter response to DMXAA” value with hSTING^group134 was “strongly diminished DMXAA activation”. On hSTING^H232/A162, the TΔS entry is given as “+7.99 Kcal/mol” and the ΔH result is “+0.44 Kcal/mol”. Besides, the “binding to DMXAA (ITC)” value in assay [2] is “no detectable binding”. In [3], the “FREE R VALUE” is reported as “REMARK 3 FREE R VALUE: 0.2288”, the “R VALUE (WORKING SET)” value was “REMARK 3 R VALUE (WORKING SET): 0.1826” and the “RESOLUTION RANGE HIGH (ANGSTROMS)” value was “REMARK 3 RESOLUTION RANGE HIGH (ANGSTROMS): 2.420”. In addition, at hSTING I235L, the “DMXAA-mediated IFN-β induction” value is reported as “no effects”. The “binding to DMXAA (ITC)” value in the assay with hSTING^group3 is “no detectable binding”. Besides, the “increases in IFN-β mRNA levels” value on hSTING^S162A/Q266I [4] was found to be 3.1 fold. At hSTING^S162A/G230I/Q266I [5], the “increases in IFN-β mRNA levels” value is 4.2 fold; the “up-regulation of CXCL10, CCL5 and IL-6 mRNAs” value is “strongest induction among the four mutants”. Further, the “DMXAA-mediated IFN-β induction” value at hSTING^Q266I is “conferred DMXAA sensitivity at a level similar to that observed for the S162A substitution”. Also, at hSTING^S162A/G230I/Q266I [6], the “CXCL10 production (ELISA)” value is “highest level of CXCL10 production”. On hSTING G166S, the “DMXAA-mediated IFN-β induction” value is “no effects”.
